From patent US20210261539A1, “COMPOUND HAVING BET INHIBITORY ACTIVITY AND PREPARATION METHOD AND USE THEREFOR” (Shanghai Haihe Pharmaceutical Co., Ltd., priority 2018, published 2021)

Target: T1, BRD4 BD1 (Homo sapiens, UniProt O60885)
T1 construct: Protein BRD4 BD1 used in the assay was purchased from Active Motif (cat. 31380); purchased Active Motif 31380
Test: HTRF in vitro enzyme activity assay, inhibition of BRD4 BD1 binding to acetylated H4 peptide
Conditions: IC50 values of the compounds against BRD4 BD1 binding; class symbols A/B/C
Method: Effect Examples: In Vitro Enzyme Activity Assay
Half inhibitory activity (IC50) of the compounds of the invention against the bromodomain protein BRD4 BD1 was determined in the present Examples.
The compounds of the invention were tested for inhibitory activity against BRD4 BD1 with Homogeneous Time-Resolved Fluorescence (HTRF).
2. Reagents, Consumable Materials and Instruments:
Protein BRD4 BD1 used in the assay was purchased from Active Motif (cat. 31380); streptavidin XL-665 (#610SAXLA) and EPIgeneous Binding Domain Kit A (#62BDAPEG) were both purchased from Cisbio Bioassays; [Lys(5,8,12,16)Ac] H4(1-21)-biotin (#64989), [Lys(5,8,12,16)Ac]H4(1-25) were available from Anaspec; OTX015 and ABBV-075 were purchased from Selleckchem Co. The 384-well ProxiPlate (#6008280) was purchased from Perkinelmer Co. The Laboratory microplate reader (Envision 2104) was available from PerkinElmer Co. The water used in the assay was Millipore-Q pure water.
3. Formulation of the Compound
10 mM DMSO stock solution of the test compound was diluted to 1 mM in DMSO, and then diluted 10-fold in Binding Domain dilution buffer (purchased from Cisbio Bioassays) for use (DMSO concentration in the final system was 0.1%), including 5 concentrations in 1:5 gradient.
4. Assay Protocol: 1 Batch, 2 Repeats
1) 5 μL of test compound was transferred to 45 μL Binding Domain dilution buffer.
2) 2 μL of 1× compound (4 μL Binding Domain dilution buffer: positive control; 6 μL enzyme buffer (purchased from Cisbio Bioassays): negative control) was transferred to a reaction plate.
3) 4 μL of 5×BRD 4(1) was added to the reaction plate (30 nM in the final system).
4) 4 μL of 5×[Lys(5,8,12,16)Ac] H4(1-21)-biotin was added to the reaction plate, and the plate was covered with a film and incubated at 37° C. for 30 min.
5) A detection mixture of SA-XL665 (2×) and anti-H3K9me0-Eu(K) (2×) was prepared in detection buffer (purchased from Cisbio Bioassays).
6) 10 μL of detection mixture (2×) was added to each well, incubated at RT for 3 h. The mp value was read by microplate reader Envision with the following parameters: […]

`CC1C(=O)N(C)c2c(F)cc(N3C(=O)CCC3c3ccc(Cl)cc3)cc2N1C1CC1` (single isomer, unassigned) [Example A15-P1-1, 6-(2-(4-chlorophenyl)-5-oxopyrrolidin-1-yl)-4-cyclopropyl-8-fluoro-1,3-dimethyl-3,4-dihydroquinoxalin-2(1H)-one] and `CC1C(=O)N(C)c2ccc(N3C(=O)CCC3c3ccc(F)cc3)nc2N1C1CC1` (single isomer, unassigned) [Example A22-P1, 4-cyclopropyl-6-(2-(4-fluorophenyl)-5-oxopyrrolidin-1-yl)-1,3-dimethyl-3,4-dihydropyrido[2,3-b]pyrazin-2(1H)-one] cannot be ordered by IC50: ≤ 10 nM for the first, 10 to 100 nM for the second.

First: CCN1c2nc(N3C(=O)CCC3c3ccc(F)cc3)ccc2N(C)C(=O)[C@H]1C (single isomer, unassigned) [Example A16-P1]
Second: CC(=O)N1c2nc(N3C(=O)CCC3c3ccc(F)cc3)ccc2N(C)C(=O)[C@H]1C (single isomer, unassigned) [Example A17-P1]
The IC50 of the first is lower: ≤ 10 nM for the first, 100 to 1000 nM for the second.

`CC1C(=O)N(C)c2ccc(N3C(=O)NCC3c3ccccc3)nc2N1C1CC1` (single isomer, unassigned) [Example A18-P4, 4-cyclopropyl-1,3-dimethyl-6-(2-oxo-5-phenylimidazolidin-1-yl)-3,4-dihydropyrido[2,3-b]pyrazin-2(1H)-one] and `CC1C(=O)N(C)c2ccc(N3C(=O)N(C)CC3c3ccccc3)nc2N1C1CC1` (single isomer, unassigned) [Example A19-P3, 4-cyclopropyl-1,3-dimethyl-6-(3-methyl-2-oxo-5-phenylimidazolidin-1-yl)-3,4-dihydropyrido[2,3-b]pyrazin-2(1H)-one] cannot be ordered by IC50: ≤ 10 nM for the first, ≤ 10 nM for the second.

`C[C@H]1Nc2nc(N3C(=O)CCC3c3ccccc3)ccc2N(C)C1=O` (single isomer, unassigned) [Example A20-P1] and `CC1Oc2nc(N3C(=O)CCC3c3ccc(F)cc3)ccc2N(C)C1=O` (single isomer, unassigned) [Example A21-P1, 6-(2-(4-fluorophenyl)-5-oxopyrrolidin-1-yl)-1,3-dimethyl-1H-pyrido[2,3-B][1,4]oxazin-2(3H)-one] cannot be ordered by IC50: 10 to 100 nM for the first, ≤ 10 nM for the second.

`CC1C(=O)N(C)c2ccc(N3C(=O)c4ccccc4C3c3ccc(F)cc3)nc2N1C1CC1` (single isomer, unassigned) [Example A23P4, 4-cyclopropyl-6-(1-(4-fluorophenyl)-3-oxoisoindolin-2-yl)-1,3-dimethyl-3,4-dihydropyrido[2,3-b]pyrazin-2(1H)-one] and `CC1C(=O)N(C)c2ccc(N3C(=O)c4ccccc4C3c3ccc(F)nc3)nc2N1C1CC1` (single isomer, unassigned) [Example A67-P3, 4-cyclopropyl-1,3-dimethyl-6-(1-oxo-3-(6-fluoropyridin-3-yl)isoindolin-2-yl)-3,4-dihydropyrido[3,2-b]pyrazin-2-(1H)-one] cannot be ordered by IC50: ≤ 10 nM for the first, ≤ 10 nM for the second.

`Cc1ccc(-n2c3ccccc3c(=O)n2-c2ccc3c(n2)N(C2CC2)C(C)C(=O)N3C)cn1` (single isomer, unassigned) [Example A50-P1, 6-(1-(6-methyl-pyridin-3-yl)-3-oxo-1,3-dihydro-2H-indazol-2-yl)-4-cyclopropyl-1-methyl-3-methyl-3,4-dihydropyridine [2,3-b]pyrazin-2(1H)-one] and `CC1C(=O)N(C)c2ccc(N3C(=O)c4ccccc4C3c3ccc(F)cn3)nc2N1C1CC1` (single isomer, unassigned) [Example A68-P3, 4-cyclopropyl-6-(1-(5-fluoropyridin-2-yl)-3-oxoisoindolin-2-yl)-1,3-dimethyl-3,4-dihydropyrido[2,3-b]pyrazin-2(1H)-one] cannot be ordered by IC50: ≤ 10 nM for the first, ≤ 10 nM for the second.

`Cc1ccc(-n2c3ccccc3c(=O)n2-c2ccc3c(n2)N(C2CC2)C(C)C(=O)N3C)cn1` (single isomer, unassigned) [Example A50-P3, 6-(1-(6-methyl-pyridin-3-yl)-3-oxo-1,3-dihydro-2H-indazol-2-yl)-4-cyclopropyl-1-methyl-3-methyl-3,4-dihydropyridine [2,3-b]pyrazin-2(1H)-one] and `CC1C(=O)N(C)c2ccc(N3C(=O)c4ccccc4C3c3ccccn3)nc2N1C1CC1` (single isomer, unassigned) [Example A69-P3, 4-cyclopropyl-1,3-dimethyl-6-(1-oxo-3-(pyridin-2-yl)isoindolin-2-yl)-3,4-dihydropyrido[2,3-b]pyrazin-2(1H)-one] cannot be ordered by IC50: ≤ 10 nM for the first, ≤ 10 nM for the second.

`Cc1ccc(-n2c3ccccc3c(=O)n2-c2ccc3c(n2)N(C2CC2)C(C)C(=O)N3C)cn1` (single isomer, unassigned) [Example A50-P4, 6-(1-(6-methyl-pyridin-3-yl)-3-oxo-1,3-dihydro-2H-indazol-2-yl)-4-cyclopropyl-1-methyl-3-methyl-3,4-dihydropyridine [2,3-b]pyrazin-2(1H)-one] and `CSc1cccc2c1C(=O)N(c1ccc3c(n1)N(C1CC1)C(C)C(=O)N3C)C2c1cccnc1` (single isomer, unassigned) [Example A65-P3, 4-cyclopropyl-1,3-dimethyl-6-(4-(methylthio)-3-oxo-1-(pyridin-3-yl)isoindolin-2-yl)-3,4-dihydropyrido[2,3-b]pyrazin-2(1H)-one] cannot be ordered by IC50: ≤ 10 nM for the first, ≤ 10 nM for the second.

`C[C@@H]1C(=O)N(C)c2ccc(N3C(=O)c4ccccc4C3c3cccnc3)nc2N1CCF` (single isomer, unassigned) [Example A55-P2, 4-(2-fluoroethyl)-1,3-dimethyl-6-(1-oxo-3-(pyridin-3-yl)isoindolin-2-yl)-3,4-dihydropyrido [2,3-b]pyrazin-2(1H)-one] and `CC1C(=O)N(C)c2ccc(N3C(=O)c4cc(F)ccc4C3c3cccnc3)nc2N1C1CC1` (single isomer, unassigned) [Example A74-P4, 4-cyclopropyl-6-(5-fluoro-3-oxo-1-(pyridin-3-yl)isoindolin-2-yl)-1,3-dimethyl-3,4-dihydropyrido[2,3-b]pyrazin-2(1H)-one] cannot be ordered by IC50: ≤ 10 nM for the first, ≤ 10 nM for the second.

`CC1C(=O)N(C)c2ccc(N3C(=O)c4c(cccc4[S+](C)[O-])C3c3cccnc3)nc2N1C1CC1` (single isomer, unassigned) [Example A60-P1] and `C[C@@H]1C(=O)N(C)c2ccc(N3C(=O)c4c(cccc4[S+](C)[O-])C3c3cccnc3)nc2N1C` (single isomer, unassigned) [Example A63-P3] cannot be ordered by IC50: ≤ 10 nM for the first, ≤ 10 nM for the second.

`CC1C(=O)N(C)c2ccc(N3C(=O)c4c(cccc4[S+](C)[O-])C3c3cccnc3)nc2N1C1CC1` (single isomer, unassigned) [Example A60-P2] and `C[C@@H]1C(=O)N(C)c2ccc(N3C(=O)c4c(cccc4[S+](C)[O-])C3c3cccnc3)nc2N1C` (single isomer, unassigned) [Example A63-P4] cannot be ordered by IC50: ≤ 10 nM for the first, ≤ 10 nM for the second.

`CC1C(=O)N(C)c2ccc(N3C(=O)c4c(cccc4[S+](C)[O-])C3c3cccnc3)nc2N1C1CC1` (single isomer, unassigned) [Example A60-P3] and `CCSc1cccc2c1C(=O)N(c1ccc3c(n1)N(C1CC1)C(C)C(=O)N3C)C2c1cccnc1` (single isomer, unassigned) [Example A66-P3] cannot be ordered by IC50: ≤ 10 nM for the first, ≤ 10 nM for the second.

`C[C@@H]1C(=O)N(C)c2ccc(N3C(=O)c4c(cccc4S(C)(=O)=O)C3c3cccnc3)nc2N1C` (single isomer, unassigned) [Example A62-P1] and `CC1C(=O)N(C)c2ccc(N3C(=O)c4c(cccc4S(C)(=O)=O)C3c3cccnc3)nc2N1C1CC1` (single isomer, unassigned) [Example A64-P3, 4-cyclopropyl-1,3-dimethyl-6-(4-(methanesulfonyl)-3-oxo-1-(pyridin-3-yl)isoindolin-2-yl)-3,4-dihydropyrido[2,3-b]pyrazin-2(1H)-one] cannot be ordered by IC50: ≤ 10 nM for the first, ≤ 10 nM for the second.

`CC1C(=O)N(C)c2cnc(N3C(=O)c4ccccc4C3c3cccnc3)cc2N1C1CC1` (single isomer, unassigned) [Example A70-P3, 1-cyclopropyl-2,4-dimethyl-7-(1-oxo-3-(pyridin-3-yl)isoindolin-2-yl)-1,4-dihydropyrido[3,4-b]pyrazin-3(2H)-one] and `CC1C(=O)N(C)c2c(F)cc(N3C(=O)c4ccccc4C3c3cccnc3)cc2N1C1CC1` (single isomer, unassigned) [Example A71-P4, 4-cyclopropyl-8-fluoro-1,3-dimethyl-6-(1-oxo-3-(pyridin-3-yl)isoindolin-2-yl)-3,4-dihydroquinoxalin-2(1H)-one] cannot be ordered by IC50: ≤ 10 nM for the first, ≤ 10 nM for the second.

For `CC1C(=O)N(C)c2ccc(N3C(=O)c4sccc4C3c3cccnc3)nc2N1C1CC1` (single isomer, unassigned) [Example A72-P4, 5-(4-cyclopropyl-1,3-dimethyl-2-oxo-1,2,3,4-tetrahydropyrido[2,3-b]pyrazin-6-yl)-4-(pyridin-3-yl)-4,5-dihydro-6H-thieno[2,3-c]pyrrol-6-one], the IC50 was ≤ 10 nM.
